Results published in ChEMBL document CHEMBL5126521, “Analgesic Opioid Ligand Discovery Based on Nonmorphinan Scaffolds Derived from Natural Sources” (J Med Chem, 2022).
Square brackets hold non-standard residues; d marks the D form. Peptide text beside a SMILES is read from it. ξ: configuration not given here. Dmt = Cc1cc(O)cc(C)c1C[C@H](N)C(=O)O; ξGly(octyl) = CCCCCCCCC(N)C(=O)O; Tic = O=C(O)[C@@H]1Cc2ccccc2CN1

Experiments:
[1] = Degradation half life in rat brain homogenate; format: ADME, tissue-based
[2] = target: T1, Delta-type opioid receptor (Homo sapiens, UniProt P41143); experiment: Binding affinity to DOP (unknown origin)
T1 sequence (P41143 whole entry): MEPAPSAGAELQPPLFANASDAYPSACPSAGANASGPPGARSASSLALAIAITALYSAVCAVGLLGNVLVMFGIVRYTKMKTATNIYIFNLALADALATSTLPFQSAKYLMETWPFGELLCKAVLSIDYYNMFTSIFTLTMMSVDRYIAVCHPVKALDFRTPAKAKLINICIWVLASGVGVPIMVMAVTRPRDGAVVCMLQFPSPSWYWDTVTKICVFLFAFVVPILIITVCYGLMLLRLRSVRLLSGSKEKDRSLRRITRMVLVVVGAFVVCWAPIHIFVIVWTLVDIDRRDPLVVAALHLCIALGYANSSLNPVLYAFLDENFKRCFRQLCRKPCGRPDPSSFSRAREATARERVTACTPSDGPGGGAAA

[3] = target: T1, Delta-type opioid receptor; experiment: Inhibition of DOP (unknown origin)
[4] = target: T2, Kappa-type opioid receptor (Homo sapiens, UniProt P41145); experiment: Inhibition of KOP (unknown origin)
T2 sequence (P41145 whole entry): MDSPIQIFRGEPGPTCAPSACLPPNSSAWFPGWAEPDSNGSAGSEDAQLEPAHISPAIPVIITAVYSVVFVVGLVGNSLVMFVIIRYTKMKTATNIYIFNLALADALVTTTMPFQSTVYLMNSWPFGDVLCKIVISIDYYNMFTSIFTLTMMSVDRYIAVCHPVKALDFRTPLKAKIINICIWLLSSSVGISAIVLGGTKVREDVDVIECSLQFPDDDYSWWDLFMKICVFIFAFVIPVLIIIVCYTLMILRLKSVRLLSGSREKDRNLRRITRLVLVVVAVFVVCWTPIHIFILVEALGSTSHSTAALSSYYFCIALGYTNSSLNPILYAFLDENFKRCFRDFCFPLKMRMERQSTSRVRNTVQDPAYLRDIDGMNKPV

Mu-type opioid receptor [5] = target: T3, Mu-type opioid receptor (Homo sapiens, UniProt P35372); experiment: Displacement of [3H]DAMGO from MOP (unknown origin) stably expressed in CHO cell membrane incubated for 90 mins by scintillation counter analysis; format: cell membranes
T3 sequence (P35372 whole entry): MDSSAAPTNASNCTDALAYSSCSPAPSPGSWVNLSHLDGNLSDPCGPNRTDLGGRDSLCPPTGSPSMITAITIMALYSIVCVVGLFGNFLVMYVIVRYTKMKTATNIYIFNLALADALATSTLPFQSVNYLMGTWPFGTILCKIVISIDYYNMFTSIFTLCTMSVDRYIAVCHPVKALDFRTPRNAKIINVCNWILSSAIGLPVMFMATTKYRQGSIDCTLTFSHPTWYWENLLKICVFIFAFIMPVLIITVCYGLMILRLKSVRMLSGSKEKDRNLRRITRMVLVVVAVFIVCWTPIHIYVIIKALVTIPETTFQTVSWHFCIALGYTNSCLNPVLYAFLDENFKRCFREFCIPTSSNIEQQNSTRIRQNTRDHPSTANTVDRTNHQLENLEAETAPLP

[6] = target: T1, Delta-type opioid receptor; experiment: Displacement of [3H]DPDPE from DOP (unknown origin) stably expressed in CHO cell membrane incubated for 90 mins by scintillation counter analysis; format: cell membranes
[7] = target: T2, Kappa-type opioid receptor; experiment: Displacement of [3H]diprenorphine from KOP (unknown origin) stably expressed in CHO cell membrane incubated for 90 mins by scintillation counter analysis; format: cell membranes
Mus musculus [8] = experiment: Antinociceptive activity in icv dosed C57BL/6J mouse assessed as tail withdrawal latency from warm water; format: functional
[9] = target: T4, Kappa-type opioid receptor (Rattus norvegicus, UniProt P34975); experiment: Displacement of [3H]diprenorphine from rat KOP stably expressed in CHO cell membrane; format: cell membranes
T4 sequence (P34975 whole entry): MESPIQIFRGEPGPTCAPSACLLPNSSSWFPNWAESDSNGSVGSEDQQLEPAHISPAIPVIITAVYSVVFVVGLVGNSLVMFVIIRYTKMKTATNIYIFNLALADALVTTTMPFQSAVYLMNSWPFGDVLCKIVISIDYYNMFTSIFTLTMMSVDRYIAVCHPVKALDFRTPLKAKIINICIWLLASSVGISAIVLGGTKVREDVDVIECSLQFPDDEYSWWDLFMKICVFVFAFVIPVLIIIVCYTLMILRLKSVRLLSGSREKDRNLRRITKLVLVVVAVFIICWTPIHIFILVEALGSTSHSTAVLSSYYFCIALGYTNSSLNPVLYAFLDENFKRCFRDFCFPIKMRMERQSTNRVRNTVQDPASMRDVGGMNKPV

Mu-type opioid receptor [10] = target: T3, Mu-type opioid receptor; experiment: Antagonist activity at human MOP stably expressed in CHO cell membrane assessed as [35S]GTPgammaS binding; format: functional, cell membranes
[11] = target: T2, Kappa-type opioid receptor; experiment: Antagonist activity at human KOP stably expressed in CHO cell membrane assessed as [35S]GTPgammaS binding; format: functional, cell membranes
[12] = Half life in mouse liver microsomes; format: ADME, Microsome
[13] = Toxicity in icv dosed C57BL/6J mouse assessed as antinociceptive activity tolerance; format: organism-based; conditions: in vivo, icv_or_intrathecal
Mus musculus [14] = experiment: Antinociceptive activity in po dosed C57BL/6J mouse assessed as tail withdrawal latency from warm water; format: functional
Mu-type opioid receptor [15] = target: T3, Mu-type opioid receptor; experiment: Displacement of [3H]DAMGO from human MOP expressed in CHO-K1 cell membrane incubated for 60 mins by Microscint-counting analysis; format: cell membranes
[16] = target: T1, Delta-type opioid receptor; experiment: Displacement of [3H]DPDPE from human DOP expressed in CHO-K1 cell membrane incubated for 60 mins by Microscint-counting analysis; format: cell membranes
Mu-type opioid receptor [17] = target: T3, Mu-type opioid receptor; experiment: Agonist activity at human MOP expressed in CHO-K1 cell membrane assessed as [35S]GTPgammaS binding; format: functional, cell membranes
Mu-type opioid receptor [18] = target: T3, Mu-type opioid receptor; experiment: Agonist activity at human MOP expressed in CHO-K1 cell membrane assessed as [35S]GTPgammaS binding relative to control; format: functional, cell membranes; conditions: filed as agonist
Rattus norvegicus [19] = experiment: Antinociceptive activity in Sprague-Dawley rat assessed as tail flick response in warm water administered icv; format: functional
Rattus norvegicus [20] = experiment: Antinociceptive activity in Sprague-Dawley rat assessed as tail flick response in warm water administered iv; format: functional
[21] = target: Delta-type opioid receptor (Mus musculus, UniProt P32300); experiment: Displacement of [3H]DPDPE from mouse DOP stably expressed in CHO cell membrane; format: cell membranes
Delta-type opioid receptor (Mus musculus, UniProt P32300), sequence (P32300 whole entry): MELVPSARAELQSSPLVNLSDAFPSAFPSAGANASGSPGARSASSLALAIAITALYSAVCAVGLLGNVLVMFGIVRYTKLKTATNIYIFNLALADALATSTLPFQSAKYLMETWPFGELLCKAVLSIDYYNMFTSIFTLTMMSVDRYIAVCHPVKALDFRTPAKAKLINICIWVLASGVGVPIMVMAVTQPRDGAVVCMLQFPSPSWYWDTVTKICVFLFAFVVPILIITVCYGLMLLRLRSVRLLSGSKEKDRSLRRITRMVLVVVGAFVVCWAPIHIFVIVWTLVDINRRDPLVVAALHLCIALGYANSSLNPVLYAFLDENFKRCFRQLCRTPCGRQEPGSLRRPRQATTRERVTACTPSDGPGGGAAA

Mu-type opioid receptor [22] = target: T3, Mu-type opioid receptor; experiment: Agonist activity at human recombinant MOP expressed in CHO cells by calcium mobilization assay; format: functional, cell-based
Mus musculus [23] = experiment: Antinociceptive activity in Swiss albino mouse assessed tail flick response in warm water administered icv; format: functional
[24] = target: Delta-type opioid receptor (Rattus norvegicus, UniProt P33533); experiment: Inhibition of Wistar rat brain membrane DOP; format: cell membranes
Delta-type opioid receptor (Rattus norvegicus, UniProt P33533), sequence (P33533 whole entry): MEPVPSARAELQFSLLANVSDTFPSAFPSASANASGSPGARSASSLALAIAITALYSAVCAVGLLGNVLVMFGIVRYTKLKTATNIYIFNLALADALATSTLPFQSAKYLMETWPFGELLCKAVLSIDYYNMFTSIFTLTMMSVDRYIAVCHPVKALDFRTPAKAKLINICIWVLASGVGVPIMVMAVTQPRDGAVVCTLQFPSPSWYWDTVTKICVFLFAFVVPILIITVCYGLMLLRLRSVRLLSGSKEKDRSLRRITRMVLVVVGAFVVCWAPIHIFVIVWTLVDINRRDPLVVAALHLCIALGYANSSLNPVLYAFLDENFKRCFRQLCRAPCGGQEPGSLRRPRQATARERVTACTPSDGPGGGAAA

Mu-type opioid receptor [25] = target: Mu-type opioid receptor (Rattus norvegicus, UniProt P33535); experiment: Inhibition of Wistar rat brain membrane MOP; format: cell membranes
Mu-type opioid receptor (Rattus norvegicus, UniProt P33535), sequence (P33535 whole entry): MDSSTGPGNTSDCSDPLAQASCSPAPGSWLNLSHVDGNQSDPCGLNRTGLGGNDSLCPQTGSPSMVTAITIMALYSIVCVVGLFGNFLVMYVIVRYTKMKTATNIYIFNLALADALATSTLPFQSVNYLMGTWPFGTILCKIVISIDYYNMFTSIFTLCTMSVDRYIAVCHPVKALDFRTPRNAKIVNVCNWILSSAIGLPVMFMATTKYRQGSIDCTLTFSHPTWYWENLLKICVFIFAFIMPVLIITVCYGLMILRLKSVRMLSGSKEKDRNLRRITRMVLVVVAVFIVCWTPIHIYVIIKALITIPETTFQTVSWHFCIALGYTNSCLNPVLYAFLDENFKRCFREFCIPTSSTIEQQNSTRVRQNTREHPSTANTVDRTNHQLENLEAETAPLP

[26] = target: T4, Kappa-type opioid receptor; experiment: Inhibition of Wistar rat brain membrane KOP; format: cell membranes
Mu-type opioid receptor [27] = target: T3, Mu-type opioid receptor; experiment: Agonist activity at MOP in human SH-SY5Y cells assessed as forskolin stimulated cAMP accumulation incubated for 30 mins by Biotrak-EIA kit method; format: functional, cell-based

## Cc1cc(O)cc(C)c1C[C@H](N)C(=O)N1Cc2ccccc2C[C@H]1C(=O)N[C@@H](Cc1ccccc1)[C@@H](O)C(=O)N[C@@H](Cc1ccccc1)C(N)=O
[1]
  half-life: 120 min

## CC[C@@H]1CN2CCc3c([nH]c4cccc(OC)c34)[C@H]2C[C@@H]1/C(=C\OC)C(=O)OC
[2]
  Ki: > 10 µM
[3]
  IC50: > 10 µM
[4]
  IC50: 10 µM

## C[C@@H]1C(=O)N[C@@H](Cc2ccccc2)C(=O)N[C@@H](Cc2c[nH]c3ccccc23)C(=O)N[C@@H](Cc2ccccc2)C(=O)N1C
Mu-type opioid receptor [5]
  Ki: 0.14 µM
[6]
  Ki: 1.37 µM
[7]
  Ki: 0.113 µM
Mus musculus [8]
  ED50: 2.43 nmol

## C[C@@H]1NC(=O)[C@@H](Cc2c[nH]c3ccccc23)NC(=O)[C@H](Cc2ccccc2)NC(=O)[C@H]2CCCN2C1=O
[9]
  Ki: 0.00307 µM
Mu-type opioid receptor [10]
  IC50: 0.00808 µM
[11]
  IC50: 0.00081 µM
Mus musculus [8]
  ED50: 1.99 nmol

## O=C1N[C@H](Cc2ccccc2)C(=O)N2CCC[C@@H]2C(=O)N[C@@H](Cc2ccccc2)C(=O)N[C@H]1Cc1c[nH]c2ccccc12
[12]
  half-life: 54 min
Mu-type opioid receptor [5]
  Ki: > 100 µM
[13]
  ED50: 20.3 nmol
Mus musculus [8]
  ED50: 0.75 nmol
Mus musculus [14]
  ED50: 7.62 mg/kg

## NC(=O)[C@@H]1CCC(=O)NCCCC[C@@H](NC(=O)[C@@H](N)Cc2ccc(O)cc2)C(=O)N[C@@H](Cc2c[nH]c3ccccc23)C(=O)N[C@@H](Cc2ccccc2)C(=O)N1
Mu-type opioid receptor [15]
  Ki: 0.00063 µM
[16]
  Ki: 0.083 µM
Mu-type opioid receptor [17]
  EC50: 0.00043 µM
Mu-type opioid receptor [18]
  Emax: 100%
Rattus norvegicus [19]
  ED50: 0.021 nmol
Rattus norvegicus [20]
  ED50: 2.2 mg/kg

## Cc1cc(O)cc(C)c1C[C@H](N)C(=O)N1Cc2ccccc2C[C@H]1C(=O)N[C@@H](Cc1ccccc1)C(=O)N[C@@H](Cc1ccccc1)C(N)=O (H-[Dmt][Tic]FF-NH2)
[1]
  half-life: 6.1 min

## C[C@@H]1NC(=O)[C@H](Cc2c[nH]c3ccccc23)NC(=O)[C@H](Cc2ccccc2)NC(=O)[C@H]2CCCN2C1=O
Mu-type opioid receptor [5]
  Ki: 0.0322 µM
[6]
  Ki: 8.68 µM
[7]
  Ki: 0.008 µM
Mus musculus [8]
  ED50: 1.49 nmol

## C[C@H]1NC(=O)[C@H](Cc2ccccc2)NC(=O)[C@H]2CCCN2C(=O)[C@H](Cc2ccccc2)NC1=O
[21]
  Ki: 10 µM
[9]
  Ki: 1.72 µM
Mu-type opioid receptor [10]
  IC50: 1.1 µM
[11]
  IC50: 0.922 µM
Mus musculus [8]
  ED50: 0.28 nmol

## CCNC(=O)C[C@H](NC(=O)[C@H](Cc1ccccc1)NC(=O)[C@H](Cc1ccccc1)NC(=O)[C@@H](CCCCNC(=O)C[C@H](NC(=O)[C@H](Cc1ccccc1)NC(=O)[C@H](Cc1ccccc1)NC(=O)CNC(=O)[C@@H](N)Cc1ccc(O)cc1)C(N)=O)NC(=O)[C@@H](N)Cc1ccc(O)cc1)C(N)=O
Mu-type opioid receptor [22]
  EC50: 0.00501 µM
Mus musculus [23]
  ED50: 1.96 nmol
[24]
  IC50: > 1 µM
Mu-type opioid receptor [25]
  IC50: 0.0262 µM
[26]
  IC50: 0.032 µM

## O=C1N[C@H](Cc2ccccc2)C(=O)N[C@H](Cc2c[nH]c3ccccc23)C(=O)N[C@@H](Cc2ccccc2)C(=O)N2CCC[C@H]12
[12]
  half-life: ≤ 30 min
[13]
  ED50: 0.49 nmol
Mus musculus [8]
  ED50: 0.56 nmol
Mus musculus [14]
  ED50: 4.72 mg/kg

## CCCCCCCCC(N)C(=O)N[C@@H](Cc1ccc(O)cc1)C(=O)N1CCC[C@H]1C(=O)N[C@@H](Cc1c[nH]c2ccccc12)C(=O)N[C@@H](Cc1ccccc1)C(N)=O (stereo partly drawn) (H-[ξGly(octyl)]YPWF-NH2)
Rattus norvegicus [20]
  ED50: 1.2 µmol/kg
Mu-type opioid receptor [27]
  EC50: 0.0314 µM

## NC(=O)[C@@H]1CC(=O)NCCCC[C@@H](NC(=O)[C@@H](N)Cc2ccc(O)cc2)C(=O)N[C@@H](Cc2c[nH]c3ccccc23)C(=O)N[C@@H](Cc2ccccc2)C(=O)N1
Mu-type opioid receptor [15]
  Ki: 0.00049 µM
[16]
  Ki: 0.083 µM
Mu-type opioid receptor [17]
  EC50: 0.00094 µM
Mu-type opioid receptor [18]
  Emax: 100%
Rattus norvegicus [19]
  ED50: 0.2 nmol

## O=C1N[C@@H](Cc2ccccc2)C(=O)N2CCC[C@@H]2C(=O)N[C@@H](Cc2ccccc2)C(=O)N[C@H]1Cc1c[nH]c2ccccc12
[12]
  half-life: 49 min
[13]
  ED50: 5.23 nmol
Mus musculus [8]
  ED50: 1.74 nmol

## CCCCCCCCC(N)C(=O)N[C@@H](Cc1c(C)cc(O)cc1C)C(=O)N1CCC[C@H]1C(=O)N[C@@H](Cc1c[nH]c2ccccc12)C(=O)N[C@@H](Cc1ccccc1)C(N)=O (stereo partly drawn) (H-[ξGly(octyl)][Dmt]PWF-NH2)
Rattus norvegicus [20]
  ED50: 1 µmol/kg
Mu-type opioid receptor [27]
  EC50: 0.0013 µM

## C[C@@H]1NC(=O)[C@H](Cc2ccccc2)NC(=O)[C@H]2CCCN2C(=O)[C@H](Cc2ccccc2)NC1=O
Mu-type opioid receptor [5]
  Ki: 0.687 µM
[6]
  Ki: > 10 µM
[7]
  Ki: 1.55 µM
Mus musculus [8]
  ED50: 6.97 nmol
